Measurements as given in PMC8327158, “PEGylated AdipoRon derivatives improve glucose and lipid metabolism under insulinopenic and high-fat diet conditions” (Journal of Lipid Research, 2021).

Tests used:
[1] = Plasma pharmacokinetics after IP dosing; format: in vivo, C57BL/6J mice; conditions: IP 20 mg/kg; for Cmax: male, mouse, plasma, 8-week-old C57BL/6J mice, mean ± SEM
Procedure: Two groups of male C57BL/6J mice (21 mice/group) at 8 weeks of age were dosed IP with 20 mg/kg AdipoRon or AdipoRonPEG5, 0.2 ml/mouse formulated as 10% DMSO/10% Cremophor/20% PEG400/60% PBS. Whole blood was harvested at seven time points post IP dosing, 10 min, 30 min, 90 min, 180 min, 360 min, 960 min, and 1,440 min. Three mice were euthanized at each time point. Plasma was processed from whole blood by centrifugation of the ACD-treated blood for 10′ at 10,000 rpm in a standard centrifuge. Additionally, the liver was harvested. The tissues were weighed and snap frozen in liquid nitrogen.
To quantify plasma drug concentration and PK, we prepared standards by adding 98 μl blank plasma (BioIVT) to an eppendorf. These were spiked with 2 μl of initial standard. For QCs, we added 98.8 μl blank plasma to Eppendorf, spiked with 1.2 μl of initial standard. For samples, we mixed 100 μl plasma with 200 μl of methanol containing 0.15% formic acid and 75 ng/ml IS (IS final conc. = 50 ng/ml). The samples were vortexed 15 s, incubated at room temp for 10′, and spun 2× 13,200 rpm in a standard microcentrifuge. The supernatant was then analyzed by LC-MS/MS.

INS-1 cells = experiment: qPCR gene expression in INS-1 cells; format: cell-based, rat; conditions: for genes related to insulin secretion and β-cell differentiation transcription factors: absence of palmitate
[2] = tested on: AMPK and ACC phosphorylation; experiment: Western blot of AMPK and ACC phosphorylation in liver and subcutaneous adipose tissue; format: in vivo, mouse
Procedure: Protein was extracted from the adipose tissue by homogenization in PBS supplemented with 1 mM EDTA, 20 mM NaF, 2 mM Na3VO4, and protease inhibitor cocktail. 5× RIPA buffer was added to the homogenate for a final concentration of 10 mM Tris-HCl, 2 mM EDTA, 0.3% NP40, 0.3% deoxycholate, 0.1% SDS, and 140 mM NaCl, pH 7.4. The sample was centrifuged at 10,000 g for 5 min. In total, 20–50 μg/lane of supernatant protein was separated by SDS-PAGE (NP0335BOX, Thermo Fisher) and transferred to nitrocellulose membrane. The blots were then incubated overnight at 4°C with primary antibodies (1:1,000) in a 1% BSA TBST-blocking solution. Primary antibodies are listed in supplemental Table S3. Primary antibodies were detected using secondary antibodies labeled with infrared dyes emitting at 700 nm or 800 nm (1:5,000, Li-Cor Bioscience 925-68073 and 926-32213, respectively) The Odyssey Infrared Imager was used to visualized western blots with Li-Cor IRdye secondary antibodies.

[3] = tested on: liver transcriptome of HFD-fed mice; experiment: RNA-seq of liver of HFD-fed mice; format: in vivo, mouse
Procedure: RNA-sequence was performed by Novogene (Sacramento, CA) by utilizing isolated RNA. After the QC procedures, mRNA from eukaryotic organisms is enriched from total RNA using oligo(dT) beads. For prokaryotic samples, rRNA is removed using a specialized kit that leaves the mRNA. The mRNA from either eukaryotic or prokaryotic sources was then fragmented randomly in fragmentation buffer, followed by cDNA synthesis using random hexamers and reverse transcriptase. After first-strand synthesis, a custom second-strand synthesis buffer (Illumina) is added, with dNTPs, RNase H, and Escherichia coli polymerase I to generate the second strand by nick-translation, and AMPure XP beads are used to purify the cDNA. The final cDNA library is ready after a round of purification, terminal repair, A-tailing, ligation of sequencing adapters, size selection, and PCR enrichment. Library concentration was first quantified using a Qubit 2.0 fluorometer (Life Technologies) and then diluted to […] before checking insert size on an Agilent 2100 and quantifying to greater accuracy by quantitative PCR (Q-PCR) (library activity >2 nM). Libraries are fed into Novaseq6000 machines according to activity and expected data volume.
Differential expression of genes between AdipoRon-treated group and AdipoRonPEG5-treated group was analyzed by use of genes having an fpkm of ≥0 in all samples. Genes whose expression was “between 1.1 and 0.9 fold change” or “more than 1.1 fold up- “or “less than 0.9 fold down-“ regulated in liver RNA from control (n = 3) versus AdipoRon (n = 3) versus AdipoRonPEG5 group constituted “nc”, “up,” and “down” signatures. Gene expression was analyzed using Gene Ontology analysis (GO Consortium) and GenePattern software (Broad Institute).

[4] = parameters: method as in PMID 24172895; conditions: oral administration at 50 mg kg−1 body weight; cited from earlier work
HFD-fed mice = experiment: qPCR gene expression in pancreas, BAT and scWAT of HFD mice; format: in vivo, mouse
Procedure: Total RNA was extracted with the RNeasy Mini kit (Qiagen #74106) for the pancreas or Trizol (Invitrogen #15596018) for the liver and adipose tissue. cDNA was synthesized with iScript cDNA Synthesis Kit (Bio-Rad #170-8891). Quantitative real-time PCR (qPCR) was performed with the Powerup SYBR Green PCR master mix (Applied Biosystems # A25742) on Quantistudio 6 Flex Real-Time PCR System (Applied Biosystems #4485694). Primer sequences for qPCR are listed in supplemental Table S2.
Six-week-old wild-type male mice were fed HFD for 4 weeks or 7 months In total, 5 mg/Kg of PBS, Adiporon, AdipoRonPEG5, AdipoRonPEG6HTL were injected twice a day for 5 days. After 5 days of treatment, systemic test is performed, and serum (Before and after treatment), subcutaneous, epididymal, liver, heart samples were harvested for qPCR and sphingolipid analysis.

| SMILES | Cmax [1] | genes related to insulin secretion and β-cell differentiation transcription factors (INS-1 cells; 20 μM) | p-AMPK levels in the liver, AdipoRon versus AdipoRonPEG5 ([2]; HFD-induced obese mice) | AdipoR1 / AdipoR2 signaling pathway genes ([3]; HFD 4 weeks, 5 mg/kg 5 days) | upregulation of genes of the family of ceramidases ([3]; HFD 4 weeks, 5 mg/kg 5 days) | lipogenesis genes Acly and Scd1 ([3]; top 30 genes) | maximal plasma concentration [4] | increase in maximal plasma concentration compared with AdipoRon [1] | expression of Ins1, Nkx6-1 and Kcnj11 (INS-1 cells; 20 μM, presence of palmitate) | expression of Hif-1α (INS-1 cells; PA-stressed INS-1 cells) | ACC phosphorylation in the subcutaneous adipose tissue ([2]; single treatment) | AMPK pathway in the liver ([2]; single treatment) | Cpt-1a expression (HFD-fed mice; BAT) | Prdm16 expression (HFD-fed mice; BAT) | fibrosis-related genes (Col1a1, Col3a1, Fn1) and Tgfb1 (HFD-fed mice; subcutaneous adipose tissue) | genes maintaining the functional state of pancreatic β-cells (HFD-fed mice; whole pancreas lysate) | gluconeogenesis-related genes in the liver ([3]; HFD 4 weeks, 5 mg/kg 5 days) | triglyceride- and glucose-metabolism-related genes incl. scd1, pck1 ([3]; HFD 4 weeks, 5 mg/kg 5 days) | glutathione S-transferases Gstm1 and Gstm2 ([3]; top 30 genes) |
| --- | --- | --- | --- | --- | --- | --- | --- | --- | --- | --- | --- | --- | --- | --- | --- | --- | --- | --- | --- |
| O=C(COc1ccc(C(=O)c2ccccc2)cc1)NC1CCN(Cc2ccccc2)CC1 [AdipoRon] | 2170 ± 196 ng/mL | suppress | higher | sided with AdipoR2 signaling | to a lesser extent | highly upregulated | 11.8 µM | – | – | – | – | – | – | – | – | – | – | – | – |
| O=C(COc1ccc(C(=O)c2ccccc2)cc1)NC1CCN(Cc2ccc(OCCOCCOCCOCCOCCO)cc2)CC1 [AdipoRonPEG5] | 6510 ± 685 ng/mL | suppress | – | preference toward amplifying AdipoR1 signaling pathway | highest | – | – | threefold | significantly increased | elevates | enhanced | activated | increased expression | significant upregulation | lowered | did not detect a significant upregulation | inhibitory effect | downregulated | prominent increases |
